In ChEMBL document CHEMBL3616448, “N-Hydroxyimides and hydroxypyrimidinones as inhibitors of the DNA repair complex ERCC1-XPF” (Bioorg Med Chem Lett, 2015):
Active and inactive are the calls of the source. The rule behind the calls is not given here.

Columns and labels:
[1] = target: T1, DNA excision repair protein ERCC-1/DNA repair endonuclease XPF (Homo sapiens, UniProt P07992+Q92889); experiment: Inhibition of ERCC1-XPF (unknown origin) by high-throughput fluorescence based in-vitro endonuclease assay; assay type: protein-complex assay
T1 sequence (P07992 whole entry): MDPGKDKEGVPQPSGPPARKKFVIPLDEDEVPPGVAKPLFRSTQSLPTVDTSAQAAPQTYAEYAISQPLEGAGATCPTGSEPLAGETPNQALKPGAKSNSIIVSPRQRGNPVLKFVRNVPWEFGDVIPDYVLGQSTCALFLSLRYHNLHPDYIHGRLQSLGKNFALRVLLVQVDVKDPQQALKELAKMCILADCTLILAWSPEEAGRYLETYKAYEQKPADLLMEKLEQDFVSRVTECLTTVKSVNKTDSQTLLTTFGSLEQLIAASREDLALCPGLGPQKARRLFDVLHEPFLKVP
T1 sequence (Q92889 whole entry): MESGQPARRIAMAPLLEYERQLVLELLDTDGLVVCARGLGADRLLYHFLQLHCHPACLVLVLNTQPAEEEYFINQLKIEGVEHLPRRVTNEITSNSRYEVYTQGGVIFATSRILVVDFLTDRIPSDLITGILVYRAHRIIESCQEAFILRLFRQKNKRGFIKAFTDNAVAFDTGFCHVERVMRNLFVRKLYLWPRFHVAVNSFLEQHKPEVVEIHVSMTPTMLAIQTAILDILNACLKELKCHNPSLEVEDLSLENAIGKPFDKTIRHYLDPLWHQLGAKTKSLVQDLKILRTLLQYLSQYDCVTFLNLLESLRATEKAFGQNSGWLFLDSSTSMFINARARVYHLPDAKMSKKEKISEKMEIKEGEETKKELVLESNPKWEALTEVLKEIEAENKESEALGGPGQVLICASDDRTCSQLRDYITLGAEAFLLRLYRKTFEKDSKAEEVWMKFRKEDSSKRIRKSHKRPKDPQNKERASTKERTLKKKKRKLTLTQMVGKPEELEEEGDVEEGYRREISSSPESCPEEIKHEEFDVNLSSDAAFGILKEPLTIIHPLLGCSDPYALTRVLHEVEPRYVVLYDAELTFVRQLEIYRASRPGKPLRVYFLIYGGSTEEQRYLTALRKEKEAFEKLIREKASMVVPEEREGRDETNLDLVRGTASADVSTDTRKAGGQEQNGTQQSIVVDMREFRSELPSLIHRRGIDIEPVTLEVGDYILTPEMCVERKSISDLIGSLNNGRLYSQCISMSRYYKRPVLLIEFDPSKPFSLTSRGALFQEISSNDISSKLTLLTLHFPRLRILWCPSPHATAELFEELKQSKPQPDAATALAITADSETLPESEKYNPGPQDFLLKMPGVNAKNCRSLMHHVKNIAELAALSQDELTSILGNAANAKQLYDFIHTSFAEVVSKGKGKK

[2] = target: T2, Deoxyribonuclease-1 (Homo sapiens, UniProt P24855); experiment: Inhibition of DNAse1 (unknown origin)
T2 sequence (P24855 whole entry): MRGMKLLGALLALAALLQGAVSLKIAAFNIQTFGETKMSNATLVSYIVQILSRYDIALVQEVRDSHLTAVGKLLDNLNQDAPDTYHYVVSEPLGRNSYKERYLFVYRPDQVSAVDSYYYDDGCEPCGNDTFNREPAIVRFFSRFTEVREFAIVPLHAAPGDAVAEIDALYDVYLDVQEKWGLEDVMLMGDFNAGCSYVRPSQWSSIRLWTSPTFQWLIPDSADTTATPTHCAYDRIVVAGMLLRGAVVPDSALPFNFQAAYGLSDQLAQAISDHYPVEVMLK

[3] = target: Flap endonuclease 1 (Homo sapiens, UniProt P39748); experiment: Inhibition of FEN1 (unknown origin)
Flap endonuclease 1, sequence (P39748 whole entry): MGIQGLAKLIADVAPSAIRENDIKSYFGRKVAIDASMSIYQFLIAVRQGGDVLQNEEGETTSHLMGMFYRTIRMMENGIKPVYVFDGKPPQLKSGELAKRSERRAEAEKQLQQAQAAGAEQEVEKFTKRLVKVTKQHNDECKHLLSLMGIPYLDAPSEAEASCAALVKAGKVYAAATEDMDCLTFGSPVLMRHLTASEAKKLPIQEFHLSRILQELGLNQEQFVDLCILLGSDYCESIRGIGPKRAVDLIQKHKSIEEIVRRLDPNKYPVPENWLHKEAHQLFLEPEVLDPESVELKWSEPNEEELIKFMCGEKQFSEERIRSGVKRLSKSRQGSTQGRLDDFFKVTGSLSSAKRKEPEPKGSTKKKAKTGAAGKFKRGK

[4] = Half life in mouse liver microsomes; assay type: ADME
[5] = tested on: HepG2; experiment: Cytotoxicity against human HepG2 cells; assay type: cell-based
[6] = Apparent permeability by PAMPA method; assay type: physicochemical
[7] = Lipophilicity, log D of the compound; assay type: physicochemical; conditions: octanol/water
[8] = Half life in human liver microsomes; assay type: ADME
[9] = target: T3, DNA excision repair protein ERCC-1/DNA repair endonuclease XPF (Homo sapiens) (UniProt P07992+Q92889); experiment: Binding affinity to ERCC1-XPF (unknown origin) assessed as melting temperature by thermal shift assay; assay type: protein-complex assay
[10] = target: T3, DNA excision repair protein ERCC-1/DNA repair endonuclease XPF (Homo sapiens); experiment: Inhibition of ERCC1-XPF in human A375 cells assessed as induction of delay in DNA repair by measuring cumulative frequency of cells up to 10 uM pre-incubated for 1 hr before cisplatin exposure for 1 hr by immunohistochemistry based gammaH2AX foci assay; assay type: cell-based; conditions: A-375
[11] = target: T1, DNA excision repair protein ERCC-1/DNA repair endonuclease XPF; experiment: Binding affinity to ERCC1-XPF (unknown origin) by SPR assay; assay type: protein-complex assay
[12] = target: T3, DNA excision repair protein ERCC-1/DNA repair endonuclease XPF (Homo sapiens); experiment: Inhibition of ERCC1-XPF in human A375 cells assessed as reduction in direct nucleotide excision repair of UV-damaged pEGFP plasmid up to 10 uM incubated for 24 hrs by recombinant GFP reporter assay; assay type: cell-based; conditions: A-375
[13] = target: T3, DNA excision repair protein ERCC-1/DNA repair endonuclease XPF (Homo sapiens); experiment: Inhibition of ERCC1-XPF in human A375 cells assessed as potentiation of cisplatin-induced cytotoxicity at 0.1 to 3 uM incubated for 5 days; assay type: cell-based; conditions: A-375
[14] = tested on: A-375; experiment: Cytotoxicity against human A375 cells assessed as reduction in cell number at 0.1 to 3 uM incubated for 5 days; assay type: cell-based; conditions: a-375, 120 h

Structure (SMILES) | IC50 [1] [µM] | IC50 [2] [µM] | IC50 [3] [µM] | also measured
CCCNC(=O)c1nc(-c2cccs2)[nH]c(=O)c1O | 2.7 | > 100 | 4.2 | –
O=C(c1nc(-c2cccs2)[nH]c(=O)c1O)N1CCCC1 | 4.6 | – | 13.7 | –
CC(C)CCNC(=O)c1nc(C2CCCN(C)C2)[nH]c(=O)c1O (configuration not stated) | 25.3 | – | > 100 | –
O=C1c2cccc3cccc(c23)C(=O)N1O | 30 | – | 0.3 | –
Cn1c(=O)n(O)c(=O)c2ccccc21 | 96.2 | > 100 | 2.1 | –
O=C1c2cccc3c(Cl)ccc(c23)C(=O)N1O | 12 | – | 0.7 | –
CCC(C)NC(=O)c1nc(-c2cccs2)[nH]c(=O)c1O (configuration not stated) | 0.6 | > 100 | 1.3 | half-life [4]: > 6.67 h; Activity [5]: > 10 µM; Papp [6]: 9.7 ×10⁻⁶ cm/s; logD [7]: 2.1; half-life [8]: > 6.67 h
CC(C)CCNC(=O)c1nc(-c2ccc(CN(C)C)cc2)[nH]c(=O)c1O | 1.7 | – | 71.3 | –
O=c1[nH]c2sccc2c(=O)n1O | 3.9 | > 100 | 0.009 | –
O=c1[nH]c2c(-c3ccccc3)csc2c(=O)n1O | 1.8 | > 100 | 0.003 | –
O=c1[nH]c2ccccc2c(=O)n1O | 18.1 | > 100 | 0.3 | –
CC(C)CCNC(=O)c1nc(-c2cccs2)[nH]c(=O)c1O | 0.5 | – | 3.5 | –
NC(=O)c1nc(-c2cccs2)nc(O)c1O | 1 | > 100 | 23.3 | half-life [4]: 2.5 h; Activity [5]: > 10 µM; Papp [6]: 0.7 ×10⁻⁶ cm/s; logD [7]: -0.4; half-life [8]: 2.32 h
O=C(NCc1ccc(F)cc1)c1nc(-c2cccs2)nc(O)c1O | 4.2 | > 100 | 2.1 | –
CC(=O)Nc1ccc2[nH]c(=O)n(O)c(=O)c2c1 | 6.6 | 87 | 2 | –
CC(C)CCNC(=O)c1nc(C2CCN(C)CC2)[nH]c(=O)c1O | 6.9 | – | > 100 | –
O=C(NCCN1CCOCC1)c1nc(-c2cccs2)[nH]c(=O)c1O | 1 | 58.9 | 4.1 | –
O=c1[nH]c2cc(Nc3ccccc3)ccc2c(=O)n1O | 3.9 | 30.2 | 0.23 | –
O=C(O)c1nc(-c2cccs2)nc(O)c1O | 2.9 | > 100 | 10.4 | –

Structure (SMILES) | IC50 [1] [µM] | IC50 [2] [µM] | IC50 [3] [µM] | also measured
O=C(Nc1cccnc1)c1nc(-c2cccs2)[nH]c(=O)c1O | 0.7 | > 100 | 8.6 | –
CC(=O)NCCNC(=O)c1nc(-c2cccs2)[nH]c(=O)c1O | 0.8 | 62.6 | 5 | –
Cn1c(-c2cccs2)nc(C(=O)O)c(O)c1=O | 48.8 | > 100 | 88.9 | –
O=c1c2ccsc2n(Cc2ccccc2)c(=O)n1O | 80.4 | > 100 | 0.68 | –
CC(C)CCNC(=O)c1nc(C2CCCCN2)[nH]c(=O)c1O (configuration not stated) | 6.3 | – | > 100 | –
COC(=O)c1nc(-c2ccccc2)[nH]c(=O)c1O | 16.4 | > 100 | 53.4 | –
CC(C)CCNC(=O)c1nc(C2CCCCN2C)[nH]c(=O)c1O (configuration not stated) | 8.4 | – | > 100 | –
O=c1[nH]c2cc(N3CCCC3)ccc2c(=O)n1O | 9.1 | 27.9 | 1.1 | –
CC(=O)Nc1ccc2c(=O)n(O)c(=O)[nH]c2c1 | 6.4 | > 100 | 2.1 | –
COc1nc(-c2cccs2)nc(C(=O)O)c1O | > 100 | – | – | –
COC(=O)c1nc(-c2cccs2)nc(O)c1O | 27.3 | > 100 | 10.1 | –
CC(=O)Nc1cccc2c(=O)n(O)c(=O)[nH]c12 | 6.1 | > 100 | 0.038 | –
O=C(O)c1nc(-c2ccccc2)nc(O)c1O | 3.9 | > 100 | 16.4 | –
O=C(Nc1ccc(F)cc1)c1nc(-c2cccs2)[nH]c(=O)c1O | 0.8 | – | 10.5 | –
Cc1ccc(-c2coc3c(=O)n(O)c(=O)[nH]c23)cc1 | 1.5 | > 100 | 0.057 | –
O=c1cc(-c2ccccc2)[nH]c(=O)n1O | 1.5 | > 100 | 0.63 | –
CC(C)CCNC(=O)c1nc(-c2ccc(CN3CCOCC3)cc2)[nH]c(=O)c1O | 0.8 | – | 38.1 | –
O=C(NCCO)c1nc(-c2cccs2)[nH]c(=O)c1O | 0.7 | > 100 | 4 | –
CNC(=O)c1nc(-c2cccs2)[nH]c(=O)c1O | 0.6 | 67.6 | 12 | half-life [4]: > 6.67 h; ΔTm [9]: 4 °C; Activity [5]: > 10 µM; inhibition [10]: inactive; Papp [6]: 3.1 ×10⁻⁶ cm/s; Kd [11]: 4 µM; logD [7]: 0.5; inhibition [12]: inactive; inhibition [13]: inactive; Activity [14]: Non-toxic; half-life [8]: 3.02 h
